The record followed here is US10358469B2, “Methods and pharmaceutical compositions for the treatment of cancer” (INSERM (INSTITUT NATIONAL DE LA SANTÉ ET DE LA RECHERCHE …, priority 2014, dated 2019).

One data set concerns A549 cells. The data set can be described thus: Cell viability (MTT) of A549 cells under low serum / serum deprivation. The class given is cell-based. As to the method:
(A) Karpas 1106, SU-DHL-5, SeAx and HUT-78 cells were plated at a densities of 6×10^3 in 96 well plates (100 μL total volume per well) and treated for 24 hours in a 37° C. incubator (5% CO2) with increasing concentrations of the Antp-AAC-11-LZ (363-399). 20 μL MTS reagent was then added to each well and plates were incubated for an additional 4 hours. Absorbance was measured at 490 nm using a 96-well plate reader. The extent to which the Antp-AAC-11-LZ (363-399) peptide inhibited cell proliferation was calculated as a percentage of the absorbance in each well containing the Antp-AAC-11-LZ (363-399) peptide relative to wells containing no peptide (negative control). Each bar represents the mean±s.d. from at least three independent experiments. (B) Indicated cells were plated at a densities of 4.5×10^3 in 96 well plates (100 μL total volume per well) and allowed to attach overnight in a 37° C. incubator (5% CO2). Media was removed from cells and replaced with media containing Antp-AAC-11-LZ (363-399) peptide at various concentrations (100 μL total volume per well) peptide and the plates were incubated for 24 hours. The MTT assay was then completed and data analysis was performed as described herein. […] A549 cells were plated at a densities of 4.5×10^3 in 96 well plates (100 μL total volume per well) and allowed to attach overnight in a 37° C. incubator (5% CO2). Media was removed from cells and replaced with media containing the indicated peptides at 10 μM (100 μL total volume per well) and the plates were incubated for 24 hours. The MTT assay was then completed and data analysis was performed as described herein.
(A) A549 cells were plated at a densities of 4.5×10^3 in 96 well plates (100 μL total volume per well) and allowed to attach overnight in a 37° C. incubator (5% CO2). Media was removed from cells and replaced with media containing the indicated peptides at various concentrations (100 μL total volume per well) peptide in the absence of serum and the plates were incubated for 24 hours. The MTT assay was then completed and data analysis was performed as described herein. (B) A549 or HaCat cells were plated at a densities of 4.5×10^3 in 96 well plates (100 μL total volume per well) and allowed to attach overnight in a 37° C. incubator (5% CO2). Media was removed from cells and replaced with media containing the indicated peptides at 10 μM (100 μL total volume per well) peptide in the absence of serum and the plates were incubated for 24 hours. The MTT assay was then completed and data analysis was performed as described herein.
A549 cells were plated at a densities of 4.5×10^3 in 96 well plates (100 μL total volume per well) and allowed to attach overnight in a 37° C. incubator (5% CO2). Cells were left untreated or pre-treated with 100 μM Z-VAD-FMK for 2 h. […] The MTT assay was then completed and data analysis was performed as described herein.
(A) A549 cells were plated at a densities of 4.5×10^3 in 96 well plates (100 μL total volume per well) and allowed to attach overnight in a 37° C. incubator (5% CO2). Media was removed from cells and replaced with media containing the indicated Antp-AAC-11-LZ peptides at various concentrations (100 μL total volume per well) peptide and the plates were incubated for 24 hours. The MTT assay was then completed and data analysis was performed as described herein. (B) A549 or HaCat cells were plated at a densities of 4.5×10^3 in 96 well plates (100 μL total volume per well) and allowed to attach overnight in a 37° C. incubator (5% CO2). Media was removed from cells and replaced with media containing the indicated peptides at 10 μM (100 μL total volume per well) peptide in the absence of serum and the plates were incubated for 24 hours. The MTT assay was then completed and data analysis was performed as described herein.

Data set [1] has as its system U2OS cells. As to the kind of experiment: Transwell Boyden chamber migration assay, U2OS cells. The settings on record: 7.5 μM, serum-free medium with 0.4% BSA, toward 10% FBS, 24 h, FIG. 10A. The class given is cell-based. On the procedure: (§1) FIG. 10: Antp-AAC-11-LZ (377-399) peptide inhibits cell migration and invasion. (A) U2OS cells were added to the upper well of modified Boyden chamber (transwell) plates in serum-free medium containing 0.4% BSA with a vehicle or with either 7.5 μM of the Antp-AAC-11-LZ (377-399) peptide or the AAC-11-LZ (377-399) peptide and subjected to a transwell migration assay as described under Materials and methods. The cells were allowed to migrate toward 10% FBS for 24 h. Triplicate wells were used for each of three independent experiments. The results are expressed relative to the migration of the untreated cells (=100%). Column: Mean of three experiments. Bar: s.e. P-value was determined by Student's t-test (*P<0.01). (B) U2OS cells were seeded in a Matrigel-coated Boyden chamber in serum-free medium containing 0.4% BSA with a vehicle or with either 7.5 µM of the Antp-AAC-11-LZ (377-399) peptide or the AAC-11-LZ (377-399) peptide and subjected to a transwell migration assay as described under Materials and methods. The cells were allowed to migrate toward 10% FBS for 48 h. Triplicate wells were used for each of three independent experiments. The results are expressed relative to the migration of the untreated cells (=100%). Column: Mean of three experiments. Bar: s.e. P-value was determined by Student's t-test (*P<0.01) […]

For data set [2], the system named is U2OS cells. The data set can be described thus: Matrigel invasion assay, U2OS cells. The note with it: 7.5 μM, toward 10% FBS, 48 h, FIG. 10B. The class given is cell-based. On the procedure: as §1
The subject of data set [3] is A549 non-small cell lung cancer xenograft. As to the kind of experiment: A549 lung adenocarcinoma subcutaneous xenograft in nude mice. It is filed as in vivo. The settings on record: 5 mg/kg i.p., 7 daily injections. On the procedure:
A549 cells (1.25×10^6) were injected subcutaneously to six weeks old female nu/nu mice. Following transplantation (n=5-6 per model) tumor growth was assessed by measuring tumor size in two dimension using a Vernier caliper. Tumor volume was calculated using the formula [3.14×long axis×short axis×short axis]/6 (Kjonniksen et al., 1989). Treatment started after randomisation when tumor volumes had reached a size of approximately 100 mm^3 and consisted of intraperitoneal injection of AAC-11-LZ (377-399) or Antp-AAC-11-LZ (377-399) peptides (5 mg/kg) or vehicle (normal saline solution) each day for 7 consecutive days. Mice were weighted and the tumor size was measured by a caliper and recorded daily. Twenty eight days after beginning of the treatment mice were sacrificed. The tumors, kidney, lungs, heart, liver, pancreas and spleen were taken and fixed. Paraffin-embedded sections were prepared and stained with hematoxylin and eosin for histological analysis.

Data set [4] can be described thus: Toxicity of peptide injection in nude mice. The settings on record: i.p. twice per week for 4 weeks.
Description: Nude mice were injected intraperitoneally twice a week for 4 weeks with normal saline solution or the indicated doses of Antp-AAC-11-LZ (363-399) peptide (n=3-4 mice per group) and were monitored daily for body weight (mean±s.e.m).
Nude mice were injected intraperitoneally twice a week for 4 weeks with normal saline solution or the indicated doses of Antp-AAC-11-LZ (377-399) peptide (n=3-4 mice per group) and were monitored daily for body weight (mean±s.e.m).
We first evaluated the toxicity of the Antp-AAC-11-LZ (363-399) peptide in nude mice that were injected intraperitoneally twice per week for 4 weeks with the Antp-AAC-11-LZ (363-399) peptide or normal saline solution (dose range: 0.8-4.8 mg peptide/kg body weight; n=3-4 mice per group).
We first evaluated the toxicity of the Antp-AAC-11-LZ (377-399) peptide in nude mice that were injected intraperitoneally twice per week for 4 weeks with the Antp-AAC-11-LZ (377-399) peptide or normal saline solution (dose range: 1-6 mg peptide/kg body weight; n=3-4 mice per group).

Regarding “Ac-RQIKIWFKKQNRRMKWKKLQYFARGLQVYIRQLRLALQGKT-NH2 [Antp-AAC-11-LZ (377-399)]”, the cellular viability with A549 cells (2 µM) is on record as 5 % of control. Moreover, the “cytotoxicity (decrease of A549 viability) relative to comparison peptide, dose-response” value in the data set with A549 cells (various concentrations, low-serum conditions, 24 hours, FIG. 2A / 5A) is listed as “markedly increased cytotoxicity potency compared to the parent peptide”. Also, in the data set on U2OS cells [1], the cell migration result is “substantially decreased”. In addition, in the data set on U2OS cells [2], the cell invasion entry is “prevented invasion”. Also, the “tumor size versus AAC-11-LZ (377-399) peptide or vehicle” value in data set [3] (FIG. 11B) is “significantly smaller tumors”. Also, the mortality entry in data set [4] (1-6 mg peptide/kg body weight) is reported as “No mice died”. Further, the “body weight difference between groups” value in data set [4] (1-6 mg peptide/kg body weight, FIG. 11A) is “no significant difference”. For the same substance, the “toxicity to kidney, lungs, heart, liver, pancreas and spleen” value in data set [4] (1-6 mg peptide/kg, end of experiment) is on record as “no obvious toxicity”.
Take “AAC-11-LZ (377-399): LQYFARGLQVYIRQLRLALQGKT (SEQ ID NO: 16) (Synthetic AAC-11-LZ (377-399))”: in the data set with U2OS cells [1], the cell migration entry is listed as “didn't show any effect”. Besides, the cell invasion result in the data set on U2OS cells [2] was “didn't show any effect”. Besides, in data set [3] (p=0.01), the “final mean tumor volume relative to control-treated mice” value was “less than 25%”.
